Test [1] relates to Wistar rats. Nature of the test: Hypotensive effect (mean arterial pressure, femoral artery, intravenous administration). The test is classed as in vivo. As to conditions: dose 1.0 mg/kg, intravenously. Here is the method: Three Wistar rats were used per group. Each animal was placed in a cage sized to the body after cannulation of catheters into the femoral artery and vein under ether anesthesia. Blood pressure was measured in the femoral artery by means of a pressure transducer and recorded as electrically integrated values of mean arterial pressure. Heart rate was counted from instant arterial pressure pulses by running the record paper at a faster speed periodically.
The test compound was administered intravenously through a catheter cannulated in the femoral vein more than 2 hours later the completion of the operation.

Test [2] addresses β receptor. Briefly: β receptor binding (^3H-Dihydroalprenolol (DHA) binding to crude cardiac microsomal membrane). Set-up: species or system SD strain rats. As to conditions: [^3H]DHA 1nM, rat heart microsomal membrane, 25°C, 30 minutes. As for the experimental part:
(3) β receptor binding Test methods (a) Crude cardiac microsomal membrane preparation SD strain rats were sacrificed by decapitation. The heart was removed and homogenized in buffer (0.25M sucrose, 10mM MOPS, pH7.4) by using Polytoron (Kinematica). The homogenate was homogenized by teflon glass homogenizer. The homogenate was centrifuged (1,000g x 10 min) to remove tissue clumps and the supernatant was centrifuged (10,000g x 10 min) twice. The supernatant was centrifuged (100,000g x 60 min) to yield pellets. The pellets were resuspended in buffer (50mM Tris-HCl, pH7.4), which were referred to as crude microsomal membrane fractions. The obtained suspensions were stored at -80°C until use. (b) ^3H-Dihydroalprenolol (DHA) binding to preparative membrane Frozen crude microsomal membrane fractions were thawed. [^3H) DHA (1nM) was incubated with 50 µl of the membrane preparation at 25°C for 30 minutes in a final volume of 200 µl. At the end of the incubation period, reaction mixture was quickly filtrated over a Whatman GF/C glass filter under aspiration. The filters were washed 5 times with 3ml of the buffer (50mM Tris-HCl, pH7.4). The radioactivity was counted in 6ml of Clear-sol I in Packard scintillation counter (Packard TRI-CARB 4530).

pKi: −log10 of the molar value.

The source of these data is patent EP0552379B1, “DIHYDROPYRIDINE DERIVATIVES, AND PROCESS FOR THEIR PREPARATION” (FUJISAWA PHARMACEUTICAL CO., LTD., priority 1991, dated 1993).

A word on the pKi: it is the Ki on a negative log10 scale, so that one unit is a factor of ten. A high value points to a low Ki.

Take `COC(=O)C1=C(C(F)(F)F)NC(C)=C(C(=O)OCCc2ccc(OCC(O)CNC(C)C)cc2)C1c1cccc([N+](=O)[O-])c1` (centres unmarked) [Dihydropyridine A, 2-{p-(2-hydroxy-3-isopropylaminopropoxy)phenyl}ethyl 1,4-dihydro-3-methoxycarbonyl-6-methyl-4-m-nitrophenyl-2-trifluoromethylpyridine-5-carboxylate]: the “Maximum change of blood pressure” value in test [1] is recorded as -39(%). In test [2], the pKi is 6.29.
